Patent US8741871B2, “Trehalose compound, method for producing same, and pharmaceutical product containing the compound” (priority 2008, dated 2014)

How the values were obtained:
[1] = tested on: mouse intraperitoneal macrophages; assay: Measurement of phagocytic ability of mouse intraperitoneal macrophages (fluorescent beads); format: cell-based; details: 50 μM test compound, 2 hours, FIG. 2
Description: Mouse intraperitoneal macrophages, a 40 mM test compound solution, and an RPMI1640 medium were prepared in the same manner as described above.
In the following experiment, Fluoresbrite (trademark) Carboxylate Microspheres (2.58% Solids-Latex) YG (Polysciences, Inc.) were used as fluorescent beads.
Macrophages were added to a TC-Plate (TC-PLATE 24 WELL, STERILE WITH LID, IND PACKED, greiner bio-one), so that they became 80% confluent. The macrophages were incubated at 37° C. for 2 hours. Thereafter, the supernatant was discarded, and the cells were then washed with 500 μl of RPMI 1640 medium two times. Each composition shown in Table 3 below was added to the TC-Plate, and it was then incubated at 37° C. for 2 hours. Thereafter, the supernatant was discarded, and the cells were then washed with 300 μl of sterilized PBS (−). In order to remove fluorescent beads that had not been incorporated into the cells, the aforementioned washing operation was repeatedly carried out two times. Macrophages were peeled off with 200 μl of sterilized PBS (−), and were then transferred into an Eppendorf tube. The macrophages were centrifuged at 1,500 rpm for 8 minutes. […]
Using FUJI FILM FLA-2000, the amount of fluorescent beads incorporated into the cells was measured [fluorescence intensity (Fluor 473 nm, Y520 Filter)]. For analysis, Image Reader V1.4J was used.

[2] = tested on: THP-1 cells; assay: Release of cytokine (MIP-1β, TNF-α) from THP-1 cells (ELISA); format: cell-based, human; details: 100 μM test compound, 2 hours, FIG. 9; for release level of TNF-α from THP-1 cells compared with the negative control: negative control vehicle; for release level of MIP-1β from THP-1 cells compared with the positive control: positive controls control compound A and TDCM
[3] = tested on: THP-1 cells; assay: Analysis of cytotoxicity to THP-1 cells using trypan blue; format: cell-based, human; details: treated for 2 hours and for 24 hours; FIG. 10
Description: The cultured THP-1 cells were transferred into a 50-ml centrifuge tube in a clean bench. The cells were then centrifuged at 1,000 rpm for 5 minutes at 20° C., and the supernatant was then removed. […] 10 μl of this cell suspension was added to a sterile Eppendorf tube, to which 990 μl of serum-free RPMI 1640 medium had previously been added, so that the solution was 100-fold diluted. The number of cells in 10 μl of the 100-fold diluted solution was counted with a blood cell counter, and the cell suspension was diluted with serum-free RPMI 1640 medium to a cell density of 1×10^7 cells/ml.
A test compound (Example 9)/DMSO solution, or DMSO was added to 100 μl of RPMI medium to a concentration of 200 μM. Thereafter, ultrasonic wave was applied to the mixture for 5 seconds. It is to be noted that a test compound, 6-O-(2-decyldecanoyl)-α-glucose (hereinafter referred to as a “control compound B”), and TDCM were used to prepare positive controls in the same manner as described above. In addition, a negative control was prepared by adding no test compounds (vehicle). […] Subsequently, 20 μl of 0.3% trypan blue/PBS (−) was added to the reaction solution so as to suspend the reaction solution therein, and thereafter, the survival rate of the cells was immediately analyzed using a cell number measuring apparatus (CYRORECON).

[4] = tested on: mouse intraperitoneal macrophages; assay: Measurement of active oxygen released from mouse intraperitoneal macrophages (H2DCFDA fluorescence); format: cell-based; details: 50 μM test compound, one hour; FIG. 1
Description: 3 ml of 5% thioglycolate medium (Difco, BD, code. 225640, Lot. 6192372) was administered into the abdominal cavity of a mouse (ICR mouse (SPF), 5-week-old, male). Four days after the administration, the mouse was sacrificed with the use of diethyl ether. […] This operation was repeatedly carried out two times. […] Thereafter, the number of macrophages was counted with One Cell Counter (Wakenyaku Co., Ltd.). The obtained macrophages were diluted with an RPMI-1640 medium to have any given concentration. The thus obtained mouse intraperitoneal macrophages were used in the subsequent test.
0.7 g of BSA was weighed into a large test tube. […] Subsequently, protein was quantified using Nano Drop ND-1000, and it was then diluted with sterilized PBS (−) so as to result in a final concentration of 2%. […]
After the macrophages had been washed with HBSG-BSA, they were then suspended in approximately 5 mL of HBSG-BSA, and 100 of the obtained suspension was then dispensed into each well of a 96-well Collagen Well (TC-PLATE 96 WELL, STERILE WITH LID, IND PACKED). […] One hour later, the amount of active oxygen was measured using Genios fluorescence intensity measurement apparatus.
The above-mentioned H2DCFDA is a fluorescent probe, and its fluorescence intensity is increased in the presence of hydrogen peroxide (H2O2).

[5] = tested on: IL-6, TNF-α, IFN-γ in mouse plasma; assay: Measurement of IL-6, TNF-α and IFN-γ released into peripheral blood of test compound administered mouse; details: 100 μg/mouse intravenous, two hours later; for IL-6-releasing activity (mouse plasma IL-6 concentration) compared with TDCM: FIG. 6; for IFN-γ-releasing activity (mouse plasma IFN-γ concentration) compared with TDCM: FIG. 7

Structure (SMILES) | action to activate the phagocytosis of mouse intraperitoneal macrophages, compared with TDCM [1] | release level of TNF-α from THP-1 cells compared with the negative control [2] | release level of MIP-1β from THP-1 cells compared with the positive control [2] | cytotoxicity to THP-1 cells (survival rate, trypan blue staining) [3] | action to promote the generation of active oxygen from mouse intraperitoneal macrophages, compared with TDCM [4] | IL-6-releasing activity (mouse plasma IL-6 concentration) compared with TDCM [5] | IFN-γ-releasing activity (mouse plasma IFN-γ concentration) compared with TDCM [5] | plasma TNF-α concentration in mice, activity compared with TDCM ([5]; FIG. 8)
CCCCCCCCCCC(CCCCCCCCCC)C(=O)OCC1O[C@H](O[C@H]2OC(COC(=O)C(CCCCCCCCCC)CCCCCCCCCC)[C@@H](O)C(O)C2O)C(O)C(O)[C@@H]1O (stereo partly drawn) [Example 1, 6,6′-bis-O-(2-decyldodecanoyl)-α,α′-trehalose] | approximately two times higher than the activity of TDCM | almost equivalent to | higher than | significant results could be obtained | two times higher than the activity of TDCM | approximately 1.2 times | approximately 1.5 times | the same level as that of TDCM
CCCCCCCCCC(CCCCCCCCC)CC(=O)OCC1O[C@H](O[C@H]2OC(COC(=O)CC(CCCCCCCCC)CCCCCCCCC)[C@@H](O)C(O)C2O)C(O)C(O)[C@@H]1O (stereo partly drawn) [Example 9, 6,6′-bis-O-(3-nonyldodecanoyl)-α,α′-trehalose] | approximately two times higher than the activity of TDCM | almost equivalent to | 8 to 10 times | cytotoxicity was not observed | two times higher than the activity of TDCM | approximately 1.5 times | approximately 1.5 times | –
